Laboratory results as given in ChEMBL document CHEMBL5308504, “Tm Shift (DSF) assay results for EUbOPEN Chemogenomics Library” (2023).
“And” between values parts separate entries of the source, which are not always exact repeats. Identical values can stand only once.

Key:
Peregrin (Homo sapiens) = target: T1, Peregrin (Homo sapiens) (UniProt P55201); conditions: Compound concentration 20.0 uM, Protein concentration 2.0 uM, Result type QC Liability
T1 sequence (whole entry): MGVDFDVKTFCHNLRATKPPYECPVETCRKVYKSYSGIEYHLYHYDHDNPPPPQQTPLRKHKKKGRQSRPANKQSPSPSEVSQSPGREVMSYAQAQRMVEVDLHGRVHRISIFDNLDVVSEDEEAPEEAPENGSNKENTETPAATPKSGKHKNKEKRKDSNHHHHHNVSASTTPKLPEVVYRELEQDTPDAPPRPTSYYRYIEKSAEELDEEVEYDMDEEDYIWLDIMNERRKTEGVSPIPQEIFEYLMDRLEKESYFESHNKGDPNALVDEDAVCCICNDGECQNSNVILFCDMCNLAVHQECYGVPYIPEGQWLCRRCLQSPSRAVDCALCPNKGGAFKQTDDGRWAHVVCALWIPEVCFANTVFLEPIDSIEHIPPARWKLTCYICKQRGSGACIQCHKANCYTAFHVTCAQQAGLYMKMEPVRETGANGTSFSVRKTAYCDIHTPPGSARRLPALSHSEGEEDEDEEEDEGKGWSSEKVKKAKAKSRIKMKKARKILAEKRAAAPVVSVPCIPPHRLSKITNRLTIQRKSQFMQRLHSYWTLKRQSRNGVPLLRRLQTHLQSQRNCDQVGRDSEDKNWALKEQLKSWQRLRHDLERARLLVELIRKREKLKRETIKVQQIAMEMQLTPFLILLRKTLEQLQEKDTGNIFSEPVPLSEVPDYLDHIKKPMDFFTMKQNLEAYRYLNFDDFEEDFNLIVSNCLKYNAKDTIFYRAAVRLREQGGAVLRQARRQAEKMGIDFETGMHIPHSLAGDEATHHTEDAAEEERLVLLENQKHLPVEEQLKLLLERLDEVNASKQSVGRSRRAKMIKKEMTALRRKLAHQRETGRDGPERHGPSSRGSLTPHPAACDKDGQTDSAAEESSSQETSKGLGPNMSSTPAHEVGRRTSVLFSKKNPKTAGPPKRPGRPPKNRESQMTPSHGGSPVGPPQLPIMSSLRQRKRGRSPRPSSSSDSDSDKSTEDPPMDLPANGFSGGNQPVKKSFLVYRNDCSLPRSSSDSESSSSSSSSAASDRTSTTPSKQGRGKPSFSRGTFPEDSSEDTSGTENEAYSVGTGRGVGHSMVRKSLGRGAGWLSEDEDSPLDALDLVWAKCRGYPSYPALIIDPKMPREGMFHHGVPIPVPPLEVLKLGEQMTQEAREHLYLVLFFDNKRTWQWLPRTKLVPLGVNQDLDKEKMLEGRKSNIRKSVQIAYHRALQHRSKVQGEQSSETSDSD

[1] = target: Fibroblast growth factor receptor 3 (Homo sapiens) (UniProt P22607); conditions: Compound concentration 20.0 uM, Protein concentration 2.0 uM, Result type QC Liability
Chain of Fibroblast growth factor receptor 3 (Homo sapiens) (P22607 23-806 limits assumed): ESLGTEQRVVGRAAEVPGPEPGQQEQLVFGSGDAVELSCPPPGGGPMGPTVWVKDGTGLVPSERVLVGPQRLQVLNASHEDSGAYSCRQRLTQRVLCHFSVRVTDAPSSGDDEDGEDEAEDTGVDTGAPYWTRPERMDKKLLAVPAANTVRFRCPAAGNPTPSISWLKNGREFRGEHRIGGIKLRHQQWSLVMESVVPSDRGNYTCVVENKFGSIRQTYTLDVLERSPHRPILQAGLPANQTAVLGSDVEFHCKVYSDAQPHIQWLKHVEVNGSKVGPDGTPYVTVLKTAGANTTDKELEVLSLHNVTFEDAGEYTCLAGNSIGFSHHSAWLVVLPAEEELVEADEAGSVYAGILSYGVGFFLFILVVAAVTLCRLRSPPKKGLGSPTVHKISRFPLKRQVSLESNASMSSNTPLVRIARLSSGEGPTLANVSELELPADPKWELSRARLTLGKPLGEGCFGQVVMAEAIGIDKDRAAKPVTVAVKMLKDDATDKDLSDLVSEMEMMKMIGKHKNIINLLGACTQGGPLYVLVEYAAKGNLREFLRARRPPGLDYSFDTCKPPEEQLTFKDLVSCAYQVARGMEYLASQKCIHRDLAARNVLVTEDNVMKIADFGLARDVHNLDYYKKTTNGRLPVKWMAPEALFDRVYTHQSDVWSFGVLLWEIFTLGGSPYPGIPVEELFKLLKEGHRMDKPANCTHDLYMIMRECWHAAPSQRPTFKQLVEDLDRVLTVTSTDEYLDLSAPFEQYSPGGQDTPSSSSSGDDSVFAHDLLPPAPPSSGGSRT
Description: Thermal Shift Assay. Domain: start/stop: P449-E759

SMILES	ΔTm (Peregrin (Homo sapiens))	ΔTm [1]
Cc1cc(CN(CC(=O)Nc2ccc(Cl)cc2Cl)C2CCCCC2)ccc1OCC(=O)O	-6.07 °C	-0.33 °C
CC1CCN(C(=O)[C@@H](CCn2cccc2C#N)NS(=O)(=O)c2cccc3[nH]ccc23)CC1	-3.16 °C	0.36 °C
O=C(O)c1ccc(OCCCc2ccc(OCCCCOC3CCCCC3)cc2)c(C(=O)NC2CCCC(C(=O)O)C2)c1 (stereo not given)	-4.19 °C	0.54 °C
CS(=O)(=O)c1ccc(-c2cnc(N)c(C(=O)Nc3ccccc3)n2)cc1	-1.36 °C	1.51 °C
CCN1C(=O)N(c2c(F)c(OC)cc(OC)c2F)Cc2cnc3[nH]c(CN4CCOCC4)cc3c21	-0.68 °C	11.8 °C
CC(C)(C)c1cc(NC(=O)c2csc(Nc3ccc(Cl)cc3)n2)no1	-0.02 °C	1.46 °C
COc1cc(F)ccc1-c1cc(Nc2cc(CS(C)(=N)=O)ccn2)ncc1F (stereo not given)	-1.49 °C	3.5 °C
CN[C@@H](C)C(=O)N[C@H](C(=O)N1CCC[C@H]1C(=O)N[C@H]1c2ccccc2C[C@H]1OCC#CC#CCO[C@@H]1Cc2ccccc2[C@@H]1NC(=O)[C@@H]1CCCN1C(=O)[C@@H](NC(=O)[C@H](C)NC)C1CCCCC1)C1CCCCC1	-2.65 °C	1.42 °C
CCN1C(=O)c2cc(C)ccc2N(C)c2ncccc21	-1.83 °C	0.59 °C
O=C1CCCc2[nH]c(-c3ccnc(NCC4CC4)c3)c(Nc3ccccc3)c21	-3.57 °C	0.77 °C
CCCCOc1c(C(=O)c2c(F)cc(C)cc2F)c[nH]c2nncc1-2	-1.13 °C	0.71 °C
O=C(O)c1cccc(C2=C(c3cc(Cl)ccc3OCc3ccc(F)cc3F)CCC2)n1	-5.87 °C	-0.33 °C
CN(C)C(=O)c1cc2cnc(Nc3ccc(N4CCN(CCCCNC(=O)COc5cccc6c5C(=O)N(C5CCC(=O)NC5=O)C6=O)CC4)cn3)nc2n1C1CCCC1 (stereo not given)	-1.94 °C	0.68 °C
CC(C)(O)CNC(=O)N1C(=O)N(c2cccc(C(F)(F)F)c2)C2=C(C(=O)CC2)[C@@H]1c1ccc(C#N)cc1	-2.73 °C	0.55 °C
CC1CN(CC(=O)N2CC(C)(C)c3nc(CO)c(Cc4ccc(F)cc4)cc32)C(CN2CCOCC2C)CN1 (stereo not given)	-1.08 °C	0.81 °C
Cc1ccc(NC(=O)c2ccc3c(c2)OCCO3)cc1NC(=O)c1ccc2nc(OCCN3CCCC3)ccc2c1	-1.27 °C	0.47 °C
CC#CCC(C)[C@H](O)/C=C/[C@@H]1[C@H]2C/C(=C/CCCC(=O)O)C[C@H]2C[C@H]1O (stereo not given in full)	-2.03 °C	0.4 °C
N[C@H](C(=O)O)[C@@H]1CC(Cl)=NO1	-1.19 °C	0.45 °C
Cn1cnc(Cn2ccc3ccc(CNCc4[nH]c5ccccc5c4[C@H]4NC(=O)c5ccc(O)cc54)cc32)c1	-2.61 °C	0.57 °C
CNS(=O)(=O)c1ccc(N(C)C)c(Nc2ncnc3cc(OC)c(OC)cc23)c1	-0.25 °C	0.55 °C

SMILES	ΔTm (Peregrin (Homo sapiens))	ΔTm [1]
Cc1cc(S(=O)(=O)N2CC(C)(C)c3cc(-c4ccc(C(F)(F)F)cc4)ccc32)ccc1OCC(=O)O	-7.85 °C	0.47 °C
CCN(CC)C(=O)C1CN2CCc3cc(OC)c(OC)cc3C2CC1OC(C)=O (stereo not given)	-2.07 °C	0.43 °C
Cn1cncc1-c1cn(-c2cccc(C(=O)Nc3cccc(C(F)(F)F)c3)c2)nn1	-1.49 °C	-9.32 °C
CN(C)[C@H]1CCN(c2cc(C(F)(F)F)c(C#N)c(Nc3cccc(CCC(=O)O)c3)n2)C1	-2.19 °C	1 °C
N#Cc1ccc(COc2ccc(Br)cc2CNCCO)cn1	0.18 °C	0.63 °C
Nc1nccc(-c2c(-c3ccc(F)cc3)ncn2C2CCN(Cc3ccon3)CC2)n1	-1.77 °C	0.95 °C
CCN(C(=O)c1cc(F)ccc1Oc1cncnc1N1CC2(CCN(C[C@H]3CC[C@H](NS(=O)(=O)CC)CC3)CC2)C1)C(C)C	-0.92 °C	0.56 °C
N#C/C(=C\c1ccc(O)c(O)c1)C(=O)OCCc1cccs1	-0.27 °C	1.51 °C
CC[C@@H](Nc1c(C#N)c(-c2ccc(-c3cccc(C)c3F)cc2)nc2cnccc12)C(=O)O	-0.66 °C	0 °C
C[C@@H]1Cc2c([nH]c3ccccc23)[C@@H](c2c(F)cc(/C=C/C(=O)O)cc2F)N1CC(C)(C)F	-4.53 °C	0.58 °C
COc1ccc(-c2cc3c(C)nc(N)nc3n([C@H]3CC[C@H](OCCO)CC3)c2=O)cn1	0.08 °C	0.24 °C
O=C(Nc1cccc(C(F)(F)F)c1)c1cccc(-n2cc(-c3ccco3)nn2)c1	-8.11 °C	-0.75 °C
Cc1c(-c2c(F)cc(C(N)=O)c3[nH]c4c(c23)CC[C@H](C(C)(C)O)C4)cccc1-n1c(=O)c2cccc(F)c2n(C)c1=O	-3.49 °C	-3.27 °C
Cn1ccc(Cn2cnc(-c3ccc(F)cc3)c2-c2ccnc3[nH]ccc23)n1	-1.13 °C	0.54 °C
Cn1ncc(-c2nc(N[C@H]3CC[C@H](N)CC3)ncc2Cl)c1CC1CC1	-1.56 °C	1.76 °C
O=C(Nc1ccc(Cl)c(-c2ccccn2)c1)c1cccc(COc2ccc(Br)cc2CNCCO)c1	-0.98 °C	0.69 °C
Cc1cc2c(-c3ccco3)cnc(N[C@@H]3CCN(C)C[C@H]3C(=O)NC3CCCCC3)c2[nH]c1=O	-0.68 °C	0.65 °C
Cc1c(CCC(=O)O)cccc1NC(=O)[C@@H](c1ccc(-c2cncc(Cl)c2)c(F)c1)C1CCCC1	-4.03 °C	0.03 °C
C[C@H](CCC(=O)O)[C@H]1CC[C@H]2[C@@H]3CC[C@@H]4C[C@H](O)CC[C@]4(C)[C@H]3C[C@H](O)[C@]12C	-1.82 °C	0.63 °C
CCCCc1c(-c2ccccc2)nc(N)nc1-c1ccc(OCc2ccccc2)c(F)c1F	-4.97 °C	-0.31 °C

SMILES	ΔTm (Peregrin (Homo sapiens))	ΔTm [1]
COc1cc(-c2cc3ncccc3c(O[C@@H](C)[C@H]3CNC(=O)C3)n2)cc(OC)c1OC	-2.76 °C	0.6 °C
COC1(C#Cc2ccc(Cl)c(-c3ncc4c(n3)-c3sc(NC(C)=O)nc3CC4)c2)CCN(C)CC1	-1.7 °C	0.77 °C
Cn1cc(-c2cnc3ccc4ccc(CS(=O)(=O)NCc5ccccn5)cc4c(=O)c3c2)cn1	-1.66 °C	3.77 °C
CCO[C@@H](Cc1ccc(OCCc2ccc(OS(C)(=O)=O)cc2)cc1)C(=O)O	-1.83 °C	0.52 °C
Cc1cc(-c2cc3ncccc3c(OC[C@H]3CCCNC3)n2)ccc1N(C)C	-1.71 °C	3.21 °C
CCN1CCN(Cc2ccc(Nc3ncc(F)c(-c4cc(F)c5nc(C)n(C(C)C)c5c4)n3)nc2)CC1	-1.26 °C	3.23 °C
C[S+](C)[O-]	0 °C (2×) and -0.4 °C	0 °C (2×) and 0.62 °C
CC[C@@H]1C(=O)N(C)c2cnc(Nc3ccc(C(=O)NC4CCN(C)CC4)cc3OC)nc2N1C1CCCC1	1.16 °C	0.55 °C
O=C(O)c1cc(F)c2nc(N3[C@@H]4CC[C@H]3C[C@@H](OCc3c(-c5ccccc5OC(F)(F)F)noc3C3CC3)C4)sc2c1	-2.96 °C	-3.83 °C
Cc1cc(NC(=O)c2cccc(NC(=O)/C=C/CN(C)C)c2)ccc1Nc1nccc(-c2cccnc2)n1	-1.22 °C	1.04 °C
Cc1cccc(CC(=O)N2CCc3c2ccc(-c2cn(C)c4ncnc(N)c24)c3F)n1	-2.12 °C	-0.88 °C
Nc1ncnc2c1ccn2[C@@H]1O[C@H]([C@@H](O)c2ccccc2)[C@@H](O)[C@H]1O	-1.55 °C	0.72 °C
COc1ccccc1-c1cc(Nc2cccc(CS(N)(=O)=O)c2)ncn1	-0.77 °C	0.74 °C
Cc1nn(C)c(COc2ccc(N3CCN(S(=O)(=O)N(C)C)CC3)cc2)c1-c1cccc2c(CCCOc3cccc4ccccc34)c(C(=O)O)n(CCN3CCOCC3)c12	-2.4 °C	0.47 °C
CCCc1c(OCCCOc2ccc(OCC(=O)O)cc2)ccc(C(C)=O)c1O	-1.78 °C	0.12 °C
Nc1ncnc2c1c(COc1cccc(Cl)c1)nn2C1CCOCC1	-1.86 °C	1.63 °C
CC(=O)c1ccc2c(c1)/C(=C(/Nc1cccc(C#N)c1)c1ccc3c(c1)OCCO3)C(=O)N2	-0.95 °C	4 °C
Cc1cc(OC2CCS(=O)(=O)CC2)cc(C)c1-c1cccc(COc2ccc(CCC(=O)O)c(F)c2)c1	-4.37 °C	0.31 °C
C[C@@H](CO)CCC[C@@H](C)[C@H]1CC[C@H]2[C@@H]3CC=C4C[C@@H](O)CC[C@]4(C)[C@H]3CC[C@]12C	-1.97 °C	0.9 °C
N=C(N)Nc1cc(C2CCNCC2)cc(C(F)(F)F)c1	-2.37 °C	0.42 °C
